This experiment relates to rat liver microsomes (RLMs). The experiment is described as follows: Michaelis-Menten kinetics (Km) of rivaroxaban in RLMs. The class given is in vitro ADME. Conditions: read-out: Km of rivaroxaban. As for the experimental part: Three samples from each group were incubated, centrifuged, and separated as described earlier. The LC–MS/MS method was used to detect rivaroxaban metabolites. Km was calculated by applying the Michaelis–Menten equation using Prism v. 9.0 (GraphPad Software, MA, USA).

`O=C(NC[C@H]1CN(c2ccc(N3CCOCC3=O)cc2)C(=O)O1)c1ccc(Cl)s1` [rivaroxaban, Rivaroxaban]: the Michaelis constant (Km) worked out at 17.6 µM.
